Reference: article PMC6155387, “Alkoxy and Enediyne Derivatives Containing 1,4-Benzoquinone Subunits—Synthesis and Antitumor Activity” (Molecules : A Journal of Synthetic Chemistry and Natural …, 2017)
Read-outs that look alike come from different tables or passages of the source.

Key:
Type in all cases: cell-based, human
MDA-MB-231 = test: antiproliferative activity (WST-1), breast cancer MDA-MB-231; conditions: for IC50: read-out: IC50 ± SD MDA-MB-231; for SI (IC50 HFF-1/IC50 cancer line) MDA-MB-231: selectivity index, HFF-1 vs MDA-MB-231
Procedure: (§1) Biological activity of the tested compounds was assessed in vitro using cultured cell lines: melanoma C-32 (ATCC, Rockville, MD, USA), glioblastoma SNB-19 (DSMZ, Braunschweig, Germany), breast cancer MDA-MB-231 (ATCC, Rockville, MD, USA), and normal human fibroblasts derived from foreskin HFF-1 (ATCC, Rockville, MD, USA). Cell cultures were maintained using DMEM (Lonza, Basel, Switzerland) supplemented with 10% fetal bovine serum (FBS) (Biological Industries Cromwell, CT, USA) and a mixture of penicillin (10,000 U/mL) and streptomycin (10 mg/mL) (Lonza, Basel, Switzerland).
(§2) Cells were cultured using 96-well plates (Nunc Thermo Fisher Scientific, Waltham, MA, USA). Cells were seeded (5 × 10^3 cells/well) and incubated for 24 h in a standard incubator (37 °C, 5% CO2, relative humidity 95%). Subsequently, the medium was replaced with a fresh aliquot containing an examined compound (0.01; 0.05; 0.1; 0.5; 1; 5; 10; 50; 100 µg/mL), and cells were further incubated for another 72 h. Upon the conclusion of incubation, a CVDE test (Aniara, West Chester, OH, USA) using crystal violet was performed to assess the relative number of cells in the culture. A WST-1 test (Roche) was performed to examine the metabolic activity of cells and test for the presence of LDH in the medium (Roche Diagnostics GmbH, Mannheim, Germany), allowing for the assessment of the relative number of dead cells (i.e., cytotoxicity of the examined compound). UVM340 microplate readers (BIOGENET, Józefów, Poland) were used to read absorbance values.
(§3) WST-1 colorimetric assay for cell proliferation (Roche Diagnostics GmbH, Mannheim, Germany, reagent kit cat. 11644807001) is based on the viable cells’ ability to cleave the bright red-colored stable tetrazolium salt WST-1 to dark red soluble formazan. This bioreduction occurs under the influence of mitochondrial dehydrogenases (depends mostly on production of NAD(P)H in viable cells). The amount of formazan dye formed correlates directly with the number of metabolically active cells in the culture and is measured by absorbance (λ = 450 nm) following 1 h incubation of cells with the reagent.

HFF-1 = test: antiproliferative activity (WST-1), normal fibroblasts HFF-1; conditions: normal fibroblasts HFF-1, 72 h, Neg: negative in the concentration used; for IC50: read-out: IC50 ± SD HFF-1
Procedure: as §1, §2, §3

C-32 = test: antiproliferative activity (WST-1), melanoma C-32; conditions: for IC50: melanoma C-32, 72 h, WST-1, Neg: negative in the concentration used, read-out: IC50 ± SD C-32; for SI (IC50 HFF-1/IC50 cancer line) C-32: selectivity index, HFF-1 vs C-32
Procedure: as §1, §2, §3

SNB-19 = test: antiproliferative activity (WST-1), glioblastoma SNB-19; conditions: for IC50: glioblastoma SNB-19, 72 h, WST-1, Neg: negative in the concentration used, read-out: IC50 ± SD SNB-19; for SI (IC50 HFF-1/IC50 cancer line) SNB-19: selectivity index, HFF-1 vs SNB-19
Procedure: as §1, §2, §3

[1] = Homo sapiens, breast cancer MDA-MB-231, 72 h, WST-1, Neg: negative in the concentration used
[2] = breast cancer MDA-MB-231, 72 h, WST-1, Neg: negative in the concentration used

Structure (SMILES) | IC50 (MDA-MB-231; [1]) | SI (IC50 HFF-1/IC50 cancer line) MDA-MB-231 (MDA-MB-231) | IC50 (HFF-1; Homo sapiens) | IC50 (C-32; Homo sapiens, C32) | SI (IC50 HFF-1/IC50 cancer line) C-32 (C-32) | IC50 (SNB-19; Homo sapiens) | SI (IC50 HFF-1/IC50 cancer line) SNB-19 (SNB-19) | IC50 ± SD HFF-1 (HFF-1) | times more activity against the C-32 cell compared to cisplatin (C-32; C-32, ratio of IC50 vs cisplatin) | times more activity against the C-32 cell compared to (Z)-4-octen-2,6-diyn-1,8-diol (22) (C-32; C-32, ratio of IC50 vs compound 22) | IC50 ± SD MDA-MB-231 (MDA-MB-231; [2]) | IC50 (MDA-MB-231; [2]) | IC50 (HFF-1) | IC50 (C-32) | IC50 (SNB-19)
C=CCOC1=C(Cl)C(=O)c2ccccc2C1=O [Compound 5, 2-Chloro-3-(2-propenoxy)-1,4-naphthoquinon] | 6.9 ± 1.9 µM | 0.55 | 3.8 ± 0.8 µM | 4 ± 0.1 µM | 0.95 | 3.8 ± 0.1 µM | 1.00 | – | – | – | – | – | – | – | –
CCCOC1=C(Cl)C(=O)c2ccc(C)nc2C1=O [Compound 10, 6-Chloro-2-methyl-7-propoxy-5,8-quinolinedione] | 22.2 ± 1.4 µM | 0.71 | 15.8 ± 1.8 µM | 26.8 ± 1.9 µM | 0.59 | 19.8 ± 1.4 µM | 0.80 | – | – | – | – | – | – | – | –
C#CCOC1=C(OCC#C)C(=O)c2ccccc2C1=O [Compound 15, 2,3-di(2-Propynoxy)-1,4-naphthoquinon] | – | – | – | 21.7 ± 0.6 µM | 0.62 | 18.6 ± 0.7 µM | 0.73 | – | – | – | – | – | – | – | –
Cc1ccc2c(n1)C(=O)C(OCC#CC=CC#CCO)=C(Cl)C2=O [Compound 25, 6-Chloro-7-(8-hydroxy-4-octen-2,6-diynyloxy)-2-methyl-5,8-quinolinedione] | 16.5 ± 1.9 µM | – | 27.1 ± 1.1 µM | 116 ± 2.9 µM | 0.23 | 169 ± 4.8 µM | 0.16 | – | – | – | – | – | – | – | –
O=C1C(Cl)=C(OCC#CC=CC#CCO)C(=O)c2ccccc21 [Compound 23, 2-Chloro-3-(8-hydroxy-4-octen-2,6-diynyloxy)-1,4-naphthoquinon] | 22.5 ± 2.4 µM | – | 97.6 ± 4 µM | 145 ± 4.8 µM | 0.67 | 186 ± 5 µM | 0.52 | – | – | – | – | – | – | – | –
CCCOC1=C(Cl)C(=O)c2ccccc2C1=O [Compound 4, 2-Chloro-3-propoxy-1,4-naphtoquinon] | 1.4 ± 0.3 µM | 10.57 | 14.8 ± 0.9 µM | 16.8 ± 0.3 µM | 0.88 | 18.4 ± 1.7 µM | 0.80 | – | – | – | – | – | – | – | –
O=C1C2=C(OCC#C/C=C\C#CCO2)C(=O)c2ncccc21 [Compound 27, 8-Octen-6,10-diynyl-1,4-dioxocyclododeca[2,3-g]-5,8-quinolinedione] | 25.1 ± 2.4 µM | – | 13 ± 3.4 µM | 48.4 ± 8.9 µM | 0.27 | 31.5 ± 2.5 µM | 0.41 | – | – | – | – | – | – | – | –
O=C1C(Cl)=C(OCC#CC=CC#CCO)C(=O)c2ncccc21 [Compound 24, 6-Chloro-7-(8-hydroxy-4-octen-2,6-diynyloxy)-5,8-quinolinedione] | 110 ± 8.1 µM | – | – | 3.1 ± 0.1 µM | – | 2.4 ± 0.1 µM | – | Neg | 5 times | 51 times | – | – | – | – | –
C=CCOC1=C(Cl)C(=O)c2ccc(C)nc2C1=O [Compound 11, 6-Chloro-2-methyl-7-(2-propenoxy)-5,8-quinolinedione] | 24.6 ± 2.9 µM | 0.82 | 20.1 ± 1.2 µM | 168 ± 6.2 µM | 0.12 | 33.8 ± 1.3 µM | 0.59 | – | – | – | – | – | – | – | –
CCCOC1=C(OCCC)C(=O)c2ccccc2C1=O [Compound 13, 2,3-Dipropoxy-1,4-naphtoquinon] | 22.6 ± 2.3 µM | 0.48 | 10.8 ± 0.5 µM | 22.6 ± 0.8 µM | 0.48 | 19.9 ± 1.4 µM | 0.54 | – | – | – | – | – | – | – | –
OCC#C/C=C\C#CCO [Compound 22, (Z)-oct-4-ene-2,6-diyne-1,8-diol] | – | 1.85 | 260 ± 5.6 µM | 159 ± 4.6 µM | 1.64 | 250 ± 4.3 µM | 1.04 | – | – | – | Neg | – | – | – | –
C=CCOC1=C(OCC=C)C(=O)c2nc(C)ccc2C1=O [Compound 20, 2-Methyl-6,7-di(2-propenoxy)-5,8-quinolinedione] | 26.8 ± 1.2 µM | 0.02 | 0.6 ± 0.2 µM | 18.9 ± 1.7 µM | 0.03 | 16.6 ± 3 µM | 0.04 | – | – | – | – | – | – | – | –
C#CCOC1=C(OCC#C)C(=O)c2nc(C)ccc2C1=O [Compound 21, 2-Methyl-6,7-di(2-propynoxy)-5,8-qunolinedione] | 23.2 ± 1.5 µM | 0.63 | 14.5 ± 2.6 µM | 21.1 ± 1.2 µM | 0.69 | 24.5 ± 1.1 µM | 0.59 | – | – | – | – | – | – | – | –
C=CCOC1=C(OCC=C)C(=O)c2ccccc2C1=O [Compound 14, 2,3-di(2-Propenoxy)-1,4-naphthoquinon] | 17.9 ± 0.8 µM | 0.25 | 4.4 ± 0.9 µM | 10.6 ± 0.6 µM | 0.42 | 19.6 ± 1 µM | 0.22 | – | – | – | – | – | – | – | –
Cc1ccc2c(n1)C(=O)C(Cl)=C(Cl)C2=O [Compound 3, 6,7-dichloro-2-methyl-5,8-quinolinedione] | 23.3 ± 0.3 µM | 0.43 | 10 ± 1.4 µM | 10.5 ± 0.8 µM | 0.95 | 15.9 ± 0.3 µM | 0.63 | – | – | – | – | – | – | – | –
CCCOC1=C(OCCC)C(=O)c2nc(C)ccc2C1=O [Compound 19, 2-Methyl-6,7-dipropoxy-5,8-quinolinedione] | 71.3 ± 3.9 µM | 0.25 | 17.8 ± 1.8 µM | 131 ± 2.4 µM | 0.14 | 25.7 ± 1.4 µM | 0.69 | – | – | – | – | – | – | – | –
N.N.[Cl][Pt][Cl] [cisplatin, reference compound] | – | – | – | – | 0.55 | – | 0.48 | – | – | – | – | 25.5 ± 0.2 µM | 9.1 ± 1.8 µM | 16.4 ± 1.2 µM | 18.9 ± 0.4 µM
Cc1ccc2c(n1)C(=O)C1=C(OCC#C/C=C\C#CCO1)C2=O [Compound 28, 8-Octen-6,10-diynyl-1,4-8-octen-6,10-diynyl-1,4-dioxocyclododeca[2,3-g]-2-methyl-5,8-quinolinedione] | 174 ± 5.9 µM | – | 27.8 ± 1.2 µM | 155 ± 3.7 µM | 0.18 | 157 ± 5.7 µM | 0.18 | – | – | – | – | – | – | – | –
C#CCOC1=C(Cl)C(=O)c2ccc(C)nc2C1=O [Compound 12, 6-Chloro-2-methyl-7-(2-propynoxy)-5,8-quinolinedione] | 17.2 ± 2.5 µM | 0.81 | 14 ± 2.4 µM | 208 ± 4.6 µM | 0.07 | 19.5 ± 1 µM | 0.72 | – | – | – | – | – | – | – | –
O=C1C2=C(OCC#C/C=C\C#CCO2)C(=O)c2ccccc21 [Compound 26, 8-Octen-6,10-diynyl-1,4-dioxocyclododeca[2,3-g]-1,4-naphthoquinon] | 2 ± 0.2 µM | – | 17.5 ± 1.3 µM | 30.3 ± 3.1 µM | 0.58 | 22.8 ± 1.4 µM | 0.77 | – | – | – | – | – | – | – | –
